Patent publication US11814393B2, “Substituted guanidine compounds” (UBE CORPORATION, priority 2016, dated 2023)

Columns and labels:
[1] = molecular target: T1, rat plasma VAP-1 (Rattus norvegicus, UniProt O08590); experiment: (Ex vivo) rat plasma VAP-1 inhibition test after oral administration of the compound; format: in vivo; conditions: 3 hours after oral administration, SD male rats, non-fasting, read-out: inhibition ratio (plasma VAP-1 activity)
T1 construct: The blood was centrifuged at 14000 rpm for 10 minutes to get plasma; from tissue; host or cells: plasma of SD male rats (ex vivo, after oral dosing)
T1 sequence (O08590 28-763 limits assumed): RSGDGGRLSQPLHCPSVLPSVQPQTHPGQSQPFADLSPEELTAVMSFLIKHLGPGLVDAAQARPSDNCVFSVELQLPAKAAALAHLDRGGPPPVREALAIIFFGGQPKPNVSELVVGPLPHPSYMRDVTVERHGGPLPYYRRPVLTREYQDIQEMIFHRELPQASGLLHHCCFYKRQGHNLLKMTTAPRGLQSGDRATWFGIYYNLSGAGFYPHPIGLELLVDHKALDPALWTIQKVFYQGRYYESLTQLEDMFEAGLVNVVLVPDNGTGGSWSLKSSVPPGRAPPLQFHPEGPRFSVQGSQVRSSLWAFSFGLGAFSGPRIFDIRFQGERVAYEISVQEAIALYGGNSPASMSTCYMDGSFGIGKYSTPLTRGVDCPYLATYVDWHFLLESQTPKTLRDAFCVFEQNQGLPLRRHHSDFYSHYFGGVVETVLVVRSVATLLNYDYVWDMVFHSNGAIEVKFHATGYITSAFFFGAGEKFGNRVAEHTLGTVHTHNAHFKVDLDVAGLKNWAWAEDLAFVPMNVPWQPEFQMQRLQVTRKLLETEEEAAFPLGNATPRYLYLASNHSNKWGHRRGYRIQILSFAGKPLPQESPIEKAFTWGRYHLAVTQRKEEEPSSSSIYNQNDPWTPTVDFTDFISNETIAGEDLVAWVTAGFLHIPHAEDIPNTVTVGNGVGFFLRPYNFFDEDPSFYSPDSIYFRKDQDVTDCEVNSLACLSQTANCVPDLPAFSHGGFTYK
Protocol: (Ex Vivo) Rat Plasma VAP-1 Inhibition Test after Oral Administration of the Compound
The compound was orally administered (0.3-10 mg/kg) to 7-12 week old SD male rats in the non-fasting state. Under anesthesia, the blood was collected in heparin tubes from the jugular vein before the administration and 3, 8 and 24 hours after the administration. The blood was centrifuged at 14000 rpm for 10 minutes to get plasma. The VAP-1 enzyme activity in the plasma was measured by radiochemical enzyme assay.
The radiochemical enzyme assay was conducted by modifying the method of P. H. Yu et al. (Diabetologia 40 1243 (1997)). ^14C-benzylamine (2.5 μM) was added to the obtained plasma, and was incubated at 37° C. for 3 hours. The reaction was terminated by the addition of 100 μL of 2 M citric acid solution to the reaction solution. The oxidative product was extracted using a toluene/ethyl acetate mixture and the radioactivity was measured with a liquid scintillation counter. The inhibition ratio of the compound was calculated using the following equation. Inhibition ratio={1−[Plasma VAP-1 activity after administration of the compound]/[Plasma VAP-1 activity before administration]}×100 [Math. 4]

[2] = molecular target: T2, Human VAP-1 enzyme (Homo sapiens, UniProt Q16853); experiment: Human VAP-1 enzyme inhibition test; format: biochemical; conditions: compound 30 nM; 14C-benzylamine 100 μM, 37° C., 1 hour; read-out: inhibition ratio
T2 construct: purchased R&D Systems, Inc
T2 sequence (Q16853 27-763 limits assumed): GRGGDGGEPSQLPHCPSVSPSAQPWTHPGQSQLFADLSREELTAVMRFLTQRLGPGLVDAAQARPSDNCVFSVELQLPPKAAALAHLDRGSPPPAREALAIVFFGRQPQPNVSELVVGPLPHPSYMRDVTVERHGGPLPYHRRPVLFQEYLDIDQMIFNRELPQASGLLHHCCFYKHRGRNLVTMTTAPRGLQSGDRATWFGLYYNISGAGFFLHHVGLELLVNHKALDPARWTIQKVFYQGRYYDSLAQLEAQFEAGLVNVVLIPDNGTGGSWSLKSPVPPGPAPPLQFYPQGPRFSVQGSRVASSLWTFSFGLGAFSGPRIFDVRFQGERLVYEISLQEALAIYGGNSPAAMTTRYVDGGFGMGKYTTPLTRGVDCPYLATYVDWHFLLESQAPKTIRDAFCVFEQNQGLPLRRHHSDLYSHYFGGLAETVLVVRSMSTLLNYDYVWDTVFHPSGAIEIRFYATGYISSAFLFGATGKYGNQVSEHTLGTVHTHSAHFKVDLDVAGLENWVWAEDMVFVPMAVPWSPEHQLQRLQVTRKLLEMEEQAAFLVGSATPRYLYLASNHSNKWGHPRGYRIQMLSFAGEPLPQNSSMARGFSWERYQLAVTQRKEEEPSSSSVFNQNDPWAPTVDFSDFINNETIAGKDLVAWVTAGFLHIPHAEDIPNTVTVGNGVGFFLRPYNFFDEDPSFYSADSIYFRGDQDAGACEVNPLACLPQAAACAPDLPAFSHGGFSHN
Protocol: Human VAP-1 Enzyme Inhibition Test
This test was conducted by modifying the method of P. H. Yu et al. (Diabetologia 40 1243 (1997)). Human VAP-1 enzyme (R&D Systems, Inc.) was pre-incubated in a 96-well plate with the compound dissolved in dimethylsulfoxide at room temperature for 20 minutes. Next, in a solution to the final volume of 200 μL, the enzyme reaction solution was incubated with ^14C-benzylamine (final concentration 100 μM) at 37° C. for 1 hour. The reaction was terminated by the addition of 100 μL of 2 M citric acid solution to the reaction solution. The oxidative product was extracted using a toluene/ethyl acetate mixture and the radioactivity was measured with a liquid scintillation counter. The inhibition ratio of the compound was calculated using the following equation. Inhibition ratio={1−[VAP-1 enzyme activity after treatment with the compound]/[VAP-1 enzyme activity in the presence of dimethylsulfoxide alone without the compound]}×100 [Math. 1]

[3] = Rat pharmacokinetic (PK) study (concentration of compound in plasma after oral administration); format: in vivo, SD rats; conditions: dose 3 mg/kg
Protocol: Rat Pharmacokinetic (PK) Study (Concentration of Compound in Plasma after Oral Administration)
Seven to eight week old SD rats (weighing 180 to 250 g) were orally administered with a suspension of the compound in 0.5 W/V % methylcellulose 400 solution. Under anesthesia, the blood was collected from the jugular vein in EDTA tubes at 0.25, 0.5, 1, 2, 4, 6, 8 and 24 hours after the administration of the compound. The blood was centrifuged at 4° C. and 6000 g for 3 minutes to give plasma. Acetonitrile was added to the plasma, and the mixture was stirred with a shaker at 750 rpm for 3 minutes and was deproteinized by centrifugation at 3700 rpm for 2 minutes. The obtained sample was analyzed by LC/MS under the following conditions.
The concentration of the compound in the plasma at each blood sampling time was determined by an internal standard method, and AUC all (Area Under Curve) was calculated by a trapezoidal method.
The following LC and MS systems were used for measurement.
LC: CBM 30 series manufactured by Shimadzu Corporation
Column: Phenomenex Kinetex C18 (50×2.1 mm, 2.6 μm)
Column temperature: 40° C.
Mobile phase A: 0.1% aqueous formic acid solution, mobile phase B: 0.1% formic acid, 50% acetonitrile/methanol mixture
MS: 3200 manufactured by SCIEX

SMILES	inhibition in vivo at 0.3 mg/kg [1] [%]	inhibition at 0.03 µM [2] [%]	amount of metabolites found in the blood [3]
[2H]C([2H])([2H])OC1CN(c2ncc(-c3cccc(COC(=O)NC(=N)N)c3F)cc2F)C1 [Example 2, 2-Fluoro-3-{5-fluoro-6-[3-(methoxy-d3)azetidin-1-yl]pyridin-3-yl}benzyl carbamimidoylcarbamate]	≥ 50	≥ 50	
N=C(N)NC(=O)OCc1cccc(-c2cnc(N3CC(OCCF)C3)c(F)c2)c1F [Example 4, 2-Fluoro-3-{5-fluoro-6-[3-(2-fluoroethoxy)azetidin-1-yl]pyridin-3-yl}benzyl carbamimidoylcarbamate]	≥ 50	≥ 50	
N=C(N)NC(=O)OCc1cccc(-c2cnc(N3CC(O)C3)c(F)c2)c1F [Example 8, 2-Fluoro-3-[5-fluoro-6-(3-hydroxyazetidin-1-yl)pyridin-3-yl]benzyl carbamimidoylcarbamate]	≥ 50	≥ 50	small
N=C(N)NC(=O)OCc1cccc(-c2cnc(N3CCC3)c(F)c2)c1F [Example 9, 3-[6-(Azetidin-1-yl)-5-fluoropyridin-3-yl]-2-fluorobenzyl carbamimidoylcarbamate]	≥ 50	≥ 50	
N=C(N)NC(=O)OCc1cccc(-c2cnc(N3CC(F)(F)C3)c(F)c2)c1F [Example 11, 3-[6-(3,3-Difluoroazetidin-1-yl)-5-fluoropyridin-3-yl]-2-fluorobenzyl carbamimidoylcarbamate]	≥ 50	≥ 50	
CC1(C)CN(c2ncc(-c3cccc(COC(=O)NC(=N)N)c3F)cc2F)C1 [Example 13, 3-[6-(3,3-Dimethylazetidin-1-yl)-5-fluoropyridin-3-yl]-2-fluorobenzyl carbamimidoylcarbamate]	≥ 50	≥ 50	
CC1(O)CN(c2ncc(-c3cccc(COC(=O)NC(=N)N)c3F)cc2F)C1 [Example 15, 2-Fluoro-3-[5-fluoro-6-(3-hydroxy-3-methylazetidin-1-yl)pyridin-3-yl]benzyl carbamimidoylcarbamate]	≥ 50	≥ 50	small
N=C(N)NC(=O)OCc1cccc(-c2cnc(N3CC4(COC4)C3)c(F)c2)c1F [Example 16, 2-Fluoro-3-[5-fluoro-6-(2-oxa-6-azaspiro[3.3]heptan-6-yl)pyridin-3-yl]benzyl carbamimidoylcarbamate]	≥ 50	≥ 50	small

Next, values leading:

inhibition in vivo at 0.3 mg/kg [1] [%]	inhibition at 0.03 µM [2] [%]	amount of metabolites found in the blood [3]	SMILES
≥ 50	≥ 50		COC1CN(c2ncc(-c3cccc(COC(=O)NC(=N)N)c3F)cc2F)C1 [Example 1, 2-Fluoro-3-[5-fluoro-6-(3-methoxyazetidin-1-yl)pyridin-3-yl]benzyl carbamimidoylcarbamate]
≥ 50	≥ 50		CCOC1CN(c2ncc(-c3cccc(COC(=O)NC(=N)N)c3F)cc2F)C1 [Example 3, 3-[6-(3-Ethoxyazetidin-1-yl)-5-fluoropyridin-3-yl]-2-fluorobenzyl carbamimidoylcarbamate]
≥ 50	≥ 50		CC(C)OC1CN(c2ncc(-c3cccc(COC(=O)NC(=N)N)c3F)cc2F)C1 [Example 6, 2-Fluoro-3-[5-fluoro-6-(3-isopropoxyazetidin-1-yl)pyridin-3-yl]benzyl carbamimidoylcarbamate]
≥ 50	≥ 50		N=C(N)NC(=O)OCc1cccc(-c2cnc(N3CC(F)C3)c(F)c2)c1F [Example 10, 2-Fluoro-3-[5-fluoro-6-(3-fluoroazetidin-1-yl)pyridin-3-yl]benzyl carbamimidoylcarbamate]
≥ 50	≥ 50		CC1CN(c2ncc(-c3cccc(COC(=O)NC(=N)N)c3F)cc2F)C1 [Example 12, 2-Fluoro-3-[5-fluoro-6-(3-methylazetidin-1-yl)pyridin-3-yl]benzyl carbamimidoylcarbamate]
